Measured values taken from paper PMC6523814, “Small-Molecule Host-Defense Peptide Mimetic Antibacterial and Antifungal Agents Activate Human and Mouse Mast Cells via Mas-Related GPCRs” (Cells, 2019).
≈ marks a conversion by molar mass, not a printed value.

Columns and labels:
[1] = tested on: Candida albicans (ATCC GDH2346); assay: Fungus MIC assay (CLSI C27-A3); format: cell-based; conditions: RPMI/MOPS pH 7.0, 35 °C, 48 h; for MIC: Candida albicans
Description: (§1) Fungal strains included a clinical isolate of Candida albicans (ATCC GDH2346), Aspergillus fumigatus (ATCC MYA-3626), and Aspergillus flavus (ATCC 204304). Minimum inhibitory concentration (MIC) assays were carried out in 96-well plates using the Clinical and Laboratory Standards Institute (CLSI) method C27-A3 for C. albicans and M38-A2 for Aspergillus species. smHDPMs, each in stock solutions of 10 mM in DMSO, were diluted in 50 µL RPMI/MOPS pH 7.0 in a 96-well plate and 50 µL of diluted yeast were added to each well. […] The plate was then incubated at 35 °C for 48 h. […] All MIC assays were performed in duplicate.

[2] = tested on: Aspergillus flavus (ATCC 204304); assay: Fungus MIC assay (CLSI M38-A2); format: cell-based; conditions: RPMI/MOPS pH 7.0, 35 °C, 48 h; for MIC: Aspergillus flavus, ATCC204304
Description: as §1

[3] = tested on: Aspergillus fumigatus (ATCC MYA-3626); assay: Fungus MIC assay (CLSI M38-A2); format: cell-based; conditions: RPMI/MOPS pH 7.0, 35 °C, 48 h; for MIC: Aspergillus fumigatus
Description: as §1

[4] = Cytotoxicity, MTS viability assay; format: cell-based, mouse; conditions: mouse, 3T3 fibroblasts (ATCC CRL-1658); 1 h exposure in serum-free medium, MTS
Description: (§2) Cytotoxicity (50% […] concentration, CC50) was determined against mouse 3T3 fibroblasts (ATCC CRL-1658) and human transformed liver HepG2 cells (ATCC HB-8065) using an MTS viability assay according to the manufacturer’s protocol (Promega CellTiter 96 aqueous nonradioactive cell proliferation assay). Briefly, 3T3 cells were seeded at 2 × 10^4 cells/well in Dulbecco’s modified Eagle’s medium (DMEM) supplemented with 10% bovine calf serum and HepG2 cells were seeded at 3 × 10^4 cells/well in MEM supplemented with 10% fetal bovine serum. After 24 h of growth, the culture medium was replaced with medium lacking serum, and eight two-folds dilutions of each of the five compounds were added. […] Following incubation for 1 h at 37 °C, compound solutions were removed and medium containing serum was replenished. Viability was determined by addition of the tetrazolium compound, MTS, and the electron coupling agent, PMS, and then incubation at 37 °C for 2 h (3T3 cells) or 3 h (HepG2 cells) followed by absorbance measurements at 490 nm. The CC50 was calculated using GraphPad Prism software (nonlinear fit).

[5] = tested on: mouse 3T3 fibroblasts (ATCC CRL-1658); assay: Cytotoxicity, MTS viability assay; format: cell-based; conditions: for fold less cytotoxic than Compound 2: CC50 in 3T3 and HepG2 cells relative to Compound 2
Description: as §2

[6] = Cytotoxicity, MTS viability assay; format: cell-based, human; conditions: human, HepG2 cells (ATCC HB-8065); 1 h exposure in serum-free medium, MTS
Description: as §2

[7] = tested on: human transformed liver HepG2 cells (ATCC HB-8065); assay: Cytotoxicity, MTS viability assay; format: cell-based
Description: as §2

[8] = biological target: T1, MRGPRX2 (Homo sapiens, UniProt Q96LB1); assay: Degranulation (β-hexosaminidase release) in RBL-2H3 cells expressing MRGPRX2; format: cell-based; conditions: for EC50: RBL-2H3 cells stably expressing MRGPRX2, 30 min; for percentage degranulation (β-hexosaminidase release): 3 µM, 30 min, RBL-2H3 cells stably expressing MRGPRX2
T1 construct: HA (hemagglutinin)
T1 sequence (Q96LB1 1-330): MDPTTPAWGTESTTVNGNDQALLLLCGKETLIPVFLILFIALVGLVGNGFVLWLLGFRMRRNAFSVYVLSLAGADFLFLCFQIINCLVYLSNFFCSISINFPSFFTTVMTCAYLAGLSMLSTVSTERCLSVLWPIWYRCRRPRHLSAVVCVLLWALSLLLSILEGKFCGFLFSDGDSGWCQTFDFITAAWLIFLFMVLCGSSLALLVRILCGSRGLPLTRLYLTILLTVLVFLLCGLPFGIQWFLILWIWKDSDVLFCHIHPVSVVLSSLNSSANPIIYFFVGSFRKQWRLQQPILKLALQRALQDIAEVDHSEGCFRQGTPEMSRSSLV
Description: The human mast cell line, LAD2, was maintained in complete StemPro-34 medium supplemented with L-glutamine (2 mM), penicillin (100 IU/mL), streptomycin (100 μg/mL), and 100 ng/mL recombinant human stem cell factor (rhSCF). Hemidepletions were performed weekly with media containing rhSCF (100 ng/mL). Rat basophilic leukemia (RBL-2H3) cells were maintained as monolayer cultures in DMEM supplemented with 10% FBS, L-glutamine (2 mM), penicillin (100 IU/mL), and streptomycin (100 μg/mL). Peritoneal mast cells (PMCs) were obtained from 6–8 weeks old C57BL/6 and Mrgprb2^-/- (C57BL/6 background) mice using i.p. injection of 8 mL MC disassociation medium that was made of HBSS with 3% FCS and 10 mM HEPES. The cells were cultured in Iscove’s Modified Dulbecco’s Medium (IMDM) supplemented with 10% FCS, murine IL-3 (10 ng/mL), and murine SCF (30 ng/mL). After 48 h, the medium and the suspended cells were removed and replaced with fresh medium containing murine IL-3 (10 ng/mL) and murine SCF (30 ng/mL). The floating cells were then used for the experiment within 2–3 weeks. Bone-marrow-derived mast cells (BMMCs) were harvested by flushing bone marrow cells from the femurs of C57BL/6 mice and culturing the cells for 4–8 weeks in IMDM supplemented with 10% FCS, murine IL-3 (10 ng/mL). The cells were then used within 4–8 weeks.
Cells (2 ×10^6) were transfected with plasmids (2 µg/µL) encoding MRGPRX2 or MRGPRX2 missense mutants using the Amaxa kit V using Amaxa Nucleofector device according to the manufacturer’s protocol. For stable transfection, cells were cultured in the presence of G-418 (1 mg/mL) and used within one month of transfection. For transient transfection, cells were used within 16–20 h after transfection. To detect MRGPRX2 expression, cells (1 × 10^6) were incubated with the PE-conjugated anti-MRGPRX2 antibody, washed in FACS buffer, fixed, and analyzed on a BD LSR II flow cytometer.
RBL-2H3 cells (5 × 10^4), LAD2 cells (10 × 10^4), and PMCs (5 × 10^3), BMMCs (5 × 10^4), were seeded into 96-well plates in a total volume of 50 μl HEPES buffer containing 0.1% bovine serum albumin (BSA) and exposed to ligands for 30 min. Cells without treatment were designated as control. In some experiments, cells were treated with Pertussis toxin (PTx). For total β-hexosaminidase release, unstimulated cells were lysed in 50 μl of 0.1% Triton X-100. Aliquots (20 μl) of supernatants or cell lysates were incubated with 20 μl of 1 mM p-nitrophenyl-N-acetyl-β- D-glucosamine for 1 h at 37 °C. The reaction was stopped by adding 250 μl of a 0.1 M Na2CO3/0.1 M NaHCO3 buffer and absorbance was measured at 405 nm.

[9] = tested on: methicillin-resistant S. aureus (MRSA); set-up: method as in PMID 26501484; conditions: cited from earlier work
[10] = tested on: Enterococcus faecalis [ATCC 29212]; assay: Bacterial MIC assay (Hancock modified broth assay); format: cell-based; conditions: ATCC29212, cation-adjusted Mueller–Hinton, 18 h
Description: (§3) were tested for antibacterial activities against three Gram-negative bacteria (Escherichia coli [ATCC 25922], Pseudomonas aeruginosa [ATCC 10145], and Klebsiella pneumonia [ATCC 13883]) and two Gram-positive bacteria (Staphylococcus aureus [ATCC 27660] and Enterococcus faecalis [ATCC 29212]) using the Hancock modified broth assay. Three milliliters cation-adjusted Mueller-Hinton medium was inoculated with 20 μL of frozen bacterial stock and incubated at 37 °C on a shaker platform (250 rpm) overnight. […] All samples were done in duplicate. One set of control wells included broth-only samples with dilution buffer for testing sterility and providing blank values for the assay readings. Vehicle-control wells containing the bacterial suspension with DMSO (no compound) were also included. Following the overnight incubation (18 h), the cell growth was assessed by observing the presence of “acceptable growth”, defined by CLSI as a ≥2 mm button or definite turbidity. MIC was defined as the lowest concentration where acceptable growth is not observed.

[11] = tested on: Escherichia coli [ATCC 25922]; assay: Bacterial MIC assay (Hancock modified broth assay); format: cell-based; conditions: cation-adjusted Mueller–Hinton, 18 h; for MIC: Escherichia coli, ATCC25922
Description: as §3

[12] = tested on: Klebsiella pneumonia [ATCC 13883]; assay: Bacterial MIC assay (Hancock modified broth assay); format: cell-based; conditions: Klebsiella pneumoniae, ATCC13883; cation-adjusted Mueller–Hinton, 18 h
Description: as §3

[13] = tested on: Pseudomonas aeruginosa [ATCC 10145]; assay: Bacterial MIC assay (Hancock modified broth assay); format: cell-based; conditions: ATCC10145, cation-adjusted Mueller–Hinton, 18 h
Description: as §3

[14] = tested on: Staphylococcus aureus [ATCC 27660]; assay: Bacterial MIC assay (Hancock modified broth assay); format: cell-based; conditions: cation-adjusted Mueller–Hinton, 18 h; for MIC: Staphylococcus aureus, ATCC27660
Description: as §3

SMILES	MIC [1] [µg/mL]	MIC [2] [µg/mL]	MIC [3] [µg/mL]	MIC A. fumigatus [3] [µg/mL]	CC50 at 1 h [4] [µM]	cytotoxic effects on 3T3 cells at concentrations relevant for antifungal activity [5]	CC50 at 1 h [6] [µM]	cytotoxic effects on HepG2 cells at concentrations relevant for antifungal activity [7]	EC50 [8] [µM]	MIC C. albicans [1] [µg/mL]	MIC A. flavus [2] [µg/mL]	MIC [10] [µg/mL]	MIC [11] [µg/mL]	MIC [12] [µg/mL]	MIC [13] [µg/mL]	MIC [14] [µg/mL]	fold less cytotoxic than Compound 2 [5]	percentage degranulation (β-hexosaminidase release) [8]	further results
Cc1cc(C#CCNC(=N)N)ccc1-c1nnc(-c2ccc(C#CCNC(=N)N)cc2)o1 [Compound 1]	0.78 to 1.56 (≈ 1.83 to 3.66 µM)	6.25 (≈ 14.7 µM)	12.5 to 50 (≈ 29.3 to 117 µM)	12.5 to 50	209	little to no cytotoxic effects	257	little to no cytotoxic effects	0.8										
N=C(N)NCCCCC(=O)Nc1cc(C(F)(F)F)cc(NC(=O)c2cc(C(=O)Nc3cc(C(F)(F)F)cc(NC(=O)CCCCNC(=N)N)c3O[C@@H]3CCNC3)ncn2)c1O[C@@H]1CCNC1 [Brilacidin]																			efficacy in rabbit model of MRSA-induced keratitis [9]: displays efficacy
N=C(N)N1CC=C(c2ccc(-c3nnc(-c4ccc(C5=CCN(C(=N)N)CC5)cc4)o3)cc2)CC1 [Compound 2]	0.39 (≈ 0.832 µM)	0.39 (≈ 0.832 µM)	0.39 (≈ 0.832 µM)	0.39 (≈ 0.832 µM)	124	little to no cytotoxic effects	151	little to no cytotoxic effects	3	0.39 (≈ 0.832 µM)	0.39 (≈ 0.832 µM)	> 100	3.1 (≈ 6.62 µM)	> 100	> 100	0.1 (≈ 0.213 µM)			Bacterial MIC Escherichia coli [11]: 3.1 µg/mL; Bacterial MIC Staphylococcus aureus [14]: 0.1 µg/mL
C1=C(c2ccc(-c3cn(-c4ccc(C5=CCNCC5)cc4)nn3)cc2)CCNC1 [Compound 3]	> 100	> 100	> 100	> 100	60		111		1.8	> 100	> 100								
c1cc(-c2ccc(N3CCNCC3)cc2)cc(-c2ccc(N3CCNCC3)cc2)n1 [Compound 5]	> 100	> 100	> 100		200		447		0.38			> 100	> 100	> 100	> 100	> 100	2–10 fold	20–25%	
Cc1c(-c2ccc(N3CCNCC3)cc2)ncnc1-c1ccc(N2CCNCC2)cc1 [Compound 4]	> 100	> 100	> 100		883		> 1560		0.4			> 100	> 100	> 100	> 100	> 100	2–10 fold	20–25%	
